pEC50, pIC50: −log10 of the molar value. Some results are limits rather than exact numbers.

The record followed here is US10919902B2, “Hetero-halo inhibitors of histone deacetylase” (Alkermes, Inc., priority 2015, dated 2021).

One test has as its target recombinant human HDACs (Homo sapiens). As to the kind of experiment: HDAC enzymatic assay. Type of test: biochemical. The following applies: 5 nM HDAC enzyme, 5 h pre-incubation, 17 h reaction at 25° C.; isoform not given; read-out: IC50. The procedure:
All recombinant human HDACs were purchased from BPS Bioscience. The substrate, FAM-TSRHK(AC)KL-CONH, was synthesized at NanoSyn. Final assay reactions contained 100 mM HEPES (pH 7.5), 50 mM KCl, 0.1% BSA, 0.01% Triton X-100, 1% DMSO, 1 uM substrate and 5 nM HDAC enzyme. Enzyme and compounds were pre-incubated at 25° C. for 5 hours and reactions were initiated by addition of substrate. 10 uL reactions were incubated for 17 hours at 25° C. and terminated by the addition of 40 uL of buffer containing 100 mM HEPES (pH 7.5), 0.1% BSA, 0.01% Triton X-100 and 0.05% SDS. Substrate and product peptides present in each sample were separated electrophoretically using the LabChip 3000 capillary electrophoresis instrument. Change in the relative fluorescence intensity of the substrate and product peaks reflects enzyme activity. Reaction progress was determined as the product to sum ratio (PSR):P/(S+P), where P is the peak height of the product peptide and S is the peak height of the substrate peptide. Reactions were performed in duplicate at 12 concentrations, (3× serial dilutions starting at 30 uM). IC50 values were calculated using a 4 Parameter Logistic Model.
In general, pIC50 refers to the negative decadic logarithm of the IC50, by convention in mol/L. As to `CN1CCC(N2C[C@@H]3C(C(=O)Nc4nc(-c5ccc(F)cc5)ccc4N)[C@@H]3C2)CC1` (stereo partly shown) [Compound 263], the negative-log IC50 (pIC50) was 5.30 to 6.30.
For `CN1CCN(Cc2ccc3c(c2)CN(C(=O)Nc2nn(-c4ccccc4)cc2N)C3)CC1` [Compound 353], the negative-log IC50 (pIC50) was 5.30 to 6.30.
Same read-out and setting: the result for `CN1CCC(C(=O)Nc2nn(-c3ccccc3)cc2N)CC1` [Compound 354] reads below 5.30.
In the case of `Nc1cn(-c2ccccc2)nc1NC(=O)N1CCN(C2COC2)CC1` [Compound 356], the pIC50 was below 5.30.
Still for that read-out and setting: the result for `Nc1cn(-c2ccccc2)nc1NC(=O)N1CCNCC1` [Compound 357] reads below 5.30.
With `CC(=O)N1CCC(C(=O)Nc2nn(-c3ccccc3)cc2N)CC1` [Compound 358], the pIC50 is below 5.30.
The same measure, in the same setting: the result for `Nc1cn(-c2ccccc2)nc1NC(=O)C1CCN(C2COC2)CC1` [Compound 359] reads below 5.30; that for `CC(=O)N1CCN(C(=O)Nc2nn(-c3ccccc3)cc2N)CC1` [Compound 360], below 5.30; that for `CN1CCN(C(=O)Nc2nn(-c3ccccc3)cc2N)CC1` [Compound 361], below 5.30.
The same measure, in the same setting: then `COC1CCN(Cc2ccc3c(c2)CN(C(=O)Nc2nc(-c4ccc(F)cc4)ccc2N)C3)C1` (stereo not shown) [Compound 363], with 6.30 to 7.00; and `Nc1ccc(-c2ccc(F)cc2)nc1NC(=O)N1CCC(F)(F)C1` [Compound 364], with 5.30 to 6.30.
Still for that read-out and setting: the result for `CN(C)Cc1ccc2c(c1)CN(C(=O)Nc1nc(-c3ccco3)ccc1N)C2` [Compound 365] reads 6.30 to 7.00; that for `Nc1ccc(-c2ccc(F)cc2)nc1NC(=O)N1Cc2ccc(CO)cc2C1` [Compound 366], 6.30 to 7.00; that for `CN1CCN(Cc2ccc3c(c2)CN(C(=O)Nc2nc(-c4ccc(F)cc4)ccc2N)C3)CC1` [Compound 367], 6.30 to 7.00.
`CN1CCC(N2CCC(C(=O)Nc3nc(-c4ccc(F)cc4)ccc3N)CC2)CC1` [Compound 368]: the negative-log IC50 (pIC50) is 5.30 to 6.30.
Same read-out and setting: then `Nc1ccc(-n2cccn2)nc1NC(=O)N1Cc2ccncc2C1` [Compound 369], with 5.30 to 6.30; and `Nc1ccc(-n2cccn2)nc1NC(=O)C1CCN(Cc2ccccc2F)CC1` [Compound 370], with below 5.30; and `CN(C)Cc1ccc2c(c1)CN(C(=O)Nc1nc(-c3ccc(F)cc3)ccc1N)C2` [Compound 371], with 6.30 to 7.00.
Regarding `Nc1ccc(-c2ccco2)nc1NC(=O)N1Cc2ccncc2C1` [Compound 372], the pIC50 is 5.30 to 6.30.
For the molecule `Nc1ccc(-c2ccc(F)cc2)nc1NC(=O)N1Cc2ccncc2C1` [Compound 373], the negative logarithm of the IC50 (pIC50) was 6.30 to 7.00.
On the same count and under the same terms, the result for `CN1CCN(c2ccc3c(c2)CN(C(=O)Nc2nc(-c4ccc(F)cc4)ccc2N)C3)CC1` [Compound 374] reads 6.30 to 7.00; that for `CN1CCC(COC(=O)Nc2nc(-c3cccnc3)ccc2N)CC1` [Compound 375], below 5.30.
Still for that read-out and setting: the result for `CN1CC(CC(=O)Nc2nc(-c3ccc(F)cc3)ccc2N)C1` [Compound 376] reads below 5.30; that for `Nc1ccc(-c2ccccc2)nc1NC(=O)C1CCN(Cc2cccnc2)CC1` [Compound 377], below 5.30; that for `Nc1ccc(-c2cccnc2)nc1NC(=O)C1CCN(Cc2ccccc2F)CC1` [Compound 378], below 5.30.
On the same count and under the same terms, then `Nc1ccc(-c2ccccc2)nc1NC(=O)C1CCN(Cc2ccccc2F)CC1` [Compound 379], with below 5.30; and `CC(=O)N1CCC(C(=O)Nc2nc(-c3ccccc3)ccc2N)CC1` [Compound 380], with below 5.30; and `Nc1ccc(-c2ccccc2)nc1NC(=O)C1CCN(C2COC2)CC1` [Compound 381], with below 5.30.
On to `Nc1cn(-c2ccccc2)nc1NC(=O)N1CC2COCC2C1` (stereo not shown) [Compound 382], for which the pIC50 was below 5.30.
The same measure, in the same setting: then `CN1CCC(c2ccc3c(c2)CN(C(=O)Nc2nn(-c4ccccc4)cc2N)C3)CC1` [Compound 383], with 6.30 to 7.00.
On the same count and under the same terms, the result for `Nc1cn(-c2ccccc2)nc1NC(=O)N1CC2CCCC2C1` (stereo not shown) [Compound 384] reads below 5.30; that for `Nc1ccc(-c2ccc(F)cc2)nc1NC(=O)N1CC2CCCC2C1` (stereo not shown) [Compound 385], 5.30 to 6.30.
Same read-out and setting: then `Nc1ccc(-c2ccc(F)cc2)nc1NC(=O)N1Cc2ccc(CN3CCC(F)(F)C3)cc2C1` [Compound 386], with 6.30 to 7.00.
Regarding `CN1CCC(c2ccc3c(c2)CN(C(=O)Nc2nc(-c4ccc(F)cc4)ccc2N)C3)CC1` [Compound 387], the negative logarithm of the IC50 (pIC50) is 5.30 to 6.30.
Still for that read-out and setting: then `COC1CCN(C(=O)Nc2nc(-c3ccc(F)cc3)ccc2N)C1` (stereo not shown) [Compound 388], with 5.30 to 6.30; and `COCC1CCN(C(=O)Nc2nc(-c3ccc(F)cc3)ccc2N)C1` (stereo not shown) [Compound 389], with below 5.30; and `Nc1ccc(-c2ccc(F)cc2)nc1NC(=O)N1CCC(C(F)(F)F)C1` (stereo not shown) [Compound 390], with 5.30 to 6.30.
Still for that read-out and setting: then `CN1CCN(c2ccc3c(n2)CN(C(=O)Nc2nc(-c4ccc(F)cc4)ccc2N)C3)CC1` [Compound 391], with 6.30 to 7.00; and `Nc1ccc(-c2ccc(F)cc2)nc1NC(=O)N1CC2COCC2C1` (stereo not shown) [Compound 392], with 5.30 to 6.30.
The same measure, in the same setting: then `COCc1ccc2c(c1)CN(C(=O)Nc1nc(-c3cccnc3)ccc1N)C2` [Compound 393], with 5.30 to 6.30; and `CC(O)c1ccc2c(c1)CN(C(=O)Nc1nc(-c3ccc(F)cc3)ccc1N)C2` (stereo not shown) [Compound 394], with 6.30 to 7.00; and `Nc1ccc(-c2cccnc2)nc1NC(=O)N1Cc2ccc(CO)cc2C1` [Compound 395], with below 5.30.
Turning to `COCc1ccc2c(c1)CN(C(=O)Nc1nc(-c3ccc(F)cc3)ccc1N)C2` [Compound 396], the pIC50 was 6.30 to 7.00.
On the same count and under the same terms, the result for `Nc1ccc(-c2ccc(F)cc2)nc1NC(=O)N1Cc2cccnc2C1` [Compound 397] reads 6.30 to 7.00; that for `CN(C)Cc1ccc2c(c1)CN(C(=O)Nc1nc(-c3ccc(Cl)s3)ccc1N)C2` [Compound 401], below 5.30.
The same measure, in the same setting: the result for `Nc1ccc(-c2ccc(F)cc2)nc1NC(=O)N1Cc2ccc(CN3CCCC3)cc2C1` [Compound 405] reads 6.30 to 7.00.
Still for that read-out and setting: then `Nc1ccc(-c2ccc(F)cc2)nc1NC(=O)N1CC2CCC(C1)O2` [Compound 406], with below 5.30; and `Nc1cn(-c2ccccc2)nc1NC(=O)N1CCC2(CCOCC2)C1` [Compound 407], with below 5.30.
With `Nc1ccc(-c2ccc(F)cc2)nc1NC(=O)N1Cc2ccc(CN3CCC(C(F)(F)F)C3)cc2C1` (stereo not shown) [Compound 408], the pIC50 is 6.30 to 7.00.
The same measure, in the same setting: then `CN(C)Cc1ccc2c(c1)CN(C(=O)Nc1nc(-c3cccs3)ccc1N)C2` [Compound 409], with 6.30 to 7.00.
The same measure, in the same setting: the result for `Nc1ccc(-c2cccs2)nc1NC(=O)N1Cc2ccc(CN3CCCC3)cc2C1` [Compound 410] reads 6.30 to 7.00.

The subject of the next test is SH-SY5Y cells. Description: Cell assay: SH-SY5Y cells, HDAC-Glo 2 reagent. It counts as cell-based. The following applies: Homo sapiens, 5 h incubation, CI-994 at 100 uM = 100% inhibition. The procedure: SH-SY5Y cells (Sigma) were cultured in Eagle's Modified Essential Medium supplemented with 10% fetal bovine serum and pen/strep. Twenty-four hours prior to compound dosing 20 uL of cells were plated in white 384 well plates at a density of 1,500 cells/well. Compounds were serially diluted in neat DMSO and then diluted 1:100 v/v into media without FBS and mixed. Media was removed from the plated cells and the diluted compounds in serum free media (1% v/v final DMSO) were added and incubated at 37° C. for five hours. Ten uL of HDAC-Glo 2 reagent with 0.1% Triton X-100 was then added, the plate was mixed and allowed to develop at room temperature for 100 minutes. Plates were then read with a Spectramax LMax luminometer employing a 0.4 s integration time. Dose response curves were constructed with normalized data where CI-994 at 100 uM was defined as 100% inhibition and DMSO alone as 0% inhibition.
As a reminder, the pEC50 is −log10 of the EC50, conventionally taken in molar units. `CN1CCC(N2C[C@@H]3C(C(=O)Nc4nc(-c5ccc(F)cc5)ccc4N)[C@@H]3C2)CC1` (stereo partly shown) [Compound 263]: the pEC50 is 5.30 to 6.30.
